Source: patent publication US20230094176A1, “COMPOUNDS AND METHODS FOR IMPROVING IMPAIRED ENDOGENOUS FIBRINOLYSIS USING HISTONE DEACETYLASE INHIBITORS” (Cereno Scientific AB, priority 2011, published 2023)

What was measured:
t-PA mRNA in HUVECs = test: C100: dose giving a 100% increase of t-PA mRNA in HUVEC (24 h); assay type: cell-based, human
Description: HUVECs are treated with different concentrations of first generation hydroxamates (TSA), second generation hydroxamates (Givinostat, Vorinostat, Belinostat, Panobinostat, SB939, PCI24781), benzamides (Mocetinostat, Entinostat) or short chain fatty acids (SCFA, Butyrate, Phenylbutyrate) for 24 h and t-PA mRNA was measured. The doses giving a 100% increase of t-PA mRNA (C100) was determined and compared to the maximum plasma concentration (Cmax) achieved when the maximum tolerated dose (MTD) of each substance is administered to humans, by dividing the C100 with the Cmax. […] In the table below the values for MTD and Cmax are from the following references (mentioned in the same order as in the table): Steele, N. L. et al Cancer Chemother Pharmacol 67(6):1273-9 (2011), Kelly, K. K. et al J Clin Oncol 23:3923-3931 (2005), Furlan, A. et al Mol Med 17(5-6) 353-362 (2011), Fukutomi, A. et al Invest New Drugs 2011 Apr. 12, Yong, W. P. et al Ann Oncol 22(11) 2516-22 (2011), Garcia-Manero, G. et al. Blood 112: 981-989 (2008), Ryan, Q. C. et al J Clin Oncol 23(17): 3912-3922 (2005), Edelman, M. J. et al Cancer Chemother Pharmacol 51: 439-444, http://www.drugs.com/pro/buphenyl.html *Butyrate was administered in the prodrug form tributyrin.

E-selectin = test: Regulation of E-selectin expression in endothelial cells; assay type: cell-based; conditions: endothelial cell gene expression
[1] = test system: TNF-a suppressed t-PA mRNA in HUVECs; test: TNF-alpha suppression of t-PA mRNA in HUVEC: anti-inflammatory substances versus Givinostat; assay type: cell-based, human
Description: HUVECs were treated with TNF-alpha (TNF-a) for 1 h and then optimal concentrations of the anti.inflammatory substances acetylsalicylic acid (ASA, 1 mM) and ibuprofen (IBU, 1 mM) was added. Givinostat was also added to the cells for comparison. Cells were harvested and t-PA mRNA levels analysed according to example 1.

[2] = test system: t-PA mRNA in endothelial cells; test: VPA dose-response on t-PA in the absence or presence of high TNF-alpha (10 ng/ml); assay type: cell-based, human
Description: In an attempt to mimic the potentially highly inflamed conditions in the local microenvironment surrounding an atherosclerotic plaque, endothelial cells were exposed to a high concentration (10 ng/ml) of TNF-alpha for 24 hours and then VPA was added for an additional 24 h. Cells were treated and mRNA prepared as described in example 1.

patients with epilepsy = conditions: cited from earlier work

Structure (SMILES)	C100 tPA (t-PA mRNA in HUVECs) [µM]	regulation of E-selectin expression (E-selectin)	increase of t-PA ([1]; HUVEC treated with TNF-a) [fold]	effect on TNF-a mediated suppression of t-PA expression ([1]; HUVEC, TNF-a 1 h then substance, ASA 1 mM, IBU 1 mM)	maximum efficacy in inducing t-PA ([2]; TNF-alpha (10 ng/ml) treated cells)	maximum efficacy in inducing t-PA ([2]; control cells (no TNF-alpha))	lowering of the risk of atherothrombotic events (patients with epilepsy; patients with epilepsy (Olesen et al 2010))	plasma levels typically obtained during anticonvulsive treatment (patients with epilepsy; patients, anticonvulsive VPA treatment) [µM]
O=C(/C=C/c1cccc(S(=O)(=O)Nc2ccccc2)c1)NO [Belinostat]	0.2	almost no effect	–	–	–	–	–	–
CCN(CC)Cc1ccc2cc(COC(=O)Nc3ccc(C(=O)NO)cc3)ccc2c1.Cl [Givinostat]	0.05	strongly suppresses expression	9	completely reverse	–	–	–	–
Nc1ccccc1NC(=O)c1ccc(CNc2nccc(-c3cccnc3)n2)cc1 [Mocetinostat]	0.1	strongly induces expression	–	–	–	–	–	–
CCCC(CCC)C(=O)O [VPA, valproic acid]	–	almost no effect	–	–	about 50 fold	about 10 fold	up to 40%	350 to 850
O=C(CCCCCCC(=O)Nc1ccccc1)NO [Vorinostat]	0.1	–	–	–	–	–	–	–
